Read-outs that look alike come from different tables or passages of the source.
What was measured:
[1] = system: Salmonella typhimurium TA100
Description: (§1) The second property that is important in testing a compound for use in methods of the present invention is mutagenicity. The most widely used mutagen/carcinogen screening assay is the Ames test. This assay is described by D. M. Maron and B. N. Ames in Mutation Research 113: 173 ( 1983) and a specific screen is described in detail in Example 17, below. The Ames test utilizes several unique strains of Salmonella typhimurium that are histidine- dependent for growth and that lack the usual DNA repair enzymes. The frequency of normal mutations that render the bacteria independent of histidine (i.e., the frequency of spontaneous revertants) is low. The test allows one to evaluate the impact of a compound on this revertant frequency.
(§2) In this example the compounds of the present invention are tested for their dark mutagenicity using an Ames assay. The procedures used for the Salmonella mutagenicity test as described in detail by Maron and Ames were followed exactly. Maron, D. M. and B. N. Ames, Mutation Research 113: 173 ( 1983). A brief description for each procedure is given here. The tester strains TA97a, TA98, TA100, TA102, TA1537 and TA1538 were obtained from Dr. Ames. TA97a, TA98, TA1537 and TA1538 are frameshift tester strains. TA100 and TA102 are base-substitution tester strains. Upon receipt each strain was cultured under a variety of conditions to confirm the genotypes specific to the strains.
(§3) The first tests done with the strains were to determine the range of spontaneous reversion for each of the strains. With each mutagenicity experiment the spontaneous reversion of the tester strains to histidine independence was measured and expressed as the number of spontaneous revertants per plate. This served as the background controls.
(§4) For all experiments, the pre-incubation procedure was used. In this procedure one vial of each tester strain was thawed and 20 μL of this culture was added to 6 mL of Oxoid Nutrient Broth #2. This solution was allowed to shake for 10 hours at 37° C. In the pre-incubation procedure, 0.1 mL of this overnight culture was added to each of the required number of sterile test tubes. To half of the tubes 0.5 mL of a 10% S-9 solution containing Aroclor 1254 induced rat liver extract (Molecular Toxicology Inc., Annapolis, Md.), and MgCl2, KCl, glucose-6-phosphate, NADP, and sodium phosphate buffer (Sigma, St. Louis, Mo.) were added. To the other half of the tubes 0.5 mL of 0.2M sodium phospate buffer, pH 7.4, was used in place of the S-9 mixture (the -S9 samples). Finally 0.1 mL of the test solution containing either 0, 0.1, 0.5, 1, 5, 10, 50, 100, 250, or 500 μg/mL of the test compound was added. The 0.7 mL mixture was vortexed and then pre-incubated while shaking for 20 minutes at 37° C. After shaking, 2 mL of molten top agar supplemented with histidine and biotin were added to the 0.7 mL mixture and immediately poured onto a minimal glucose agar plate (volume of base agar was 20 mL). The top agar was allowed 30 minutes to solidify and then the plates were inverted and incubated for 44 hours at 37° C. After incubation the number of revertant colonies on each plate were counted. […] (“n” represents the number of replicates performed for each data point.)
(§5) Maron and Ames (1983) describe the conflicting views with regard to the statisical treatment of data generated from the test.

[2] = system: Salmonella typhimurium TA98; assay: Ames assay (dark mutagenicity), strain TA98
Description: as §1, §2, §3, §4, §5

[3] = system: Salmonella typhimurium TA1538; assay: Ames assay (dark mutagenicity), strain TA1538
Description: as §1, §2, §3, §4, §5

[4] = system: HIV-1; settings: concentrations of 64 μM of compound or higher
Experimental: Pathogen inactivation efficiency of several compounds of the present invention was evaluated by examining the ability of the compounds to inactivate cell-free virus (HIV). Inactivation of cell-free HIV was performed as follows.
As in the R17 assay, small aliquots of the compounds listed in TABLES 10 and 11, below, at the concentrations listed in the table, were added to stock HIV-1 to a total of 0.5 mL. The stock HIV (10^5-10^7 plaque forming units/mL) was in DMEM/15% FBS. […] Controls included HIV-1 stock only, HIV-1 plus UVA only, and HIV-1 plus the highest concentration of each psoralen tested, with no UVA. Post irradiation, all samples were stores frozen at −70° C. until assayed for infectivity by a microtiter plaque assay. Aliquots for measurement of residual HIV infectivity in the samples treated with a compound of the present invention were withdrawn and cultured.
Residual HIV infectivity was assayed using an MT-2 infectivity assay. […] After 24 to 48 hours, the red fluorescence-stained microplaques were visualized by placing the plates on an 8,000 μW/cm^2 304 nm UV light box (Fotodyne, Inc., New Berlin, Wis.). The plaques were counted at a magnification of ×20 to ×25 through a stereomicroscope.

[5] = system: Chinese hamster ovary (CHO) cells; assay: In vitro genotoxicity screen in CHO cells; type: cell-based; settings: approximately 3 hours exposure in the dark, dilutions 1-1000 μg/ml
Description: The positive control was methylmethane sulfonate.
Coverslips were mounted with Permount.

[6] = system: Salmonella typhimurium TA1537; assay: Ames assay (dark mutagenicity), strain TA1537; settings: TA1537 in the presence of S9
Description: as §1, §2, §3, §4, §5

[7] = system: human platelets; settings: 100 μM compound
Experimental: To measure the effects of the present compounds and methods of decontamination on platelet function using these four indicators, four samples were prepared for each compound tested, two control samples and two containing compound. Three units of human platelets were obtained from the Sacramento Blood Center, Sacramento, Calif. These were each transferred under sterile conditions to 50 ml centrifuge tubes, then aliquots of each unit were transferred into a second set of 50 ml sterile centrifuge tubes. To each centrifuge tube containing platelet concentrate (PC), an aliquot of compound stock was added to reach a final concentration of 100 μM of compound. […] The samples were pipetted gently up and down to mix. Then aliquots (either 3 ml or 8 ml) of each sample was transferred to two sterile Teflon™ Medi-bags™ (American Fluoroseal Co., Silver Springs, Md.) (presently owned by The West Company, Lionville, Pa.). Samples were treated in one of two different sized bags, having either 3 ml or 8 ml capacity. […] For each compound tested, two control samples without compound were prepared by again removing aliquots of platelet concentrate (17 ml if using an 8 ml bag, […] if using a 3 ml bag) from the same one of the first set of 50 ml centrifuge tubes from which the compound sample was drawn, and dividing into Medibags, as before. One of each pair of Medibags containing a compound, and one of each pair of control Medibags, were illuminated for 5 Joules/cm^2 on the device described in Example 1, above. Then all experimental and control Medibags were placed on a platelet shaker for storage for 5 days. The same experiments were repeated several times to obtain more statistically meaningful data, as represented by “n”, the number of data points represented, in the graphs of FIGS. 21-24, discussed below.
A Sysmex cell counter was used to measure platelet count in the platelet samples. Samples were diluted 1:3 in blood bank saline.

With `Cc1oc2c(C)c3oc(=O)cc(C)c3cc2c1COCCN` [Compound 2, 4′-(4-amino-2-oxa)butyl-4,5′,8-trimethylpsoralen] the revertants per plate ([1]; TA100 +S9, 5 μg/plate) was −18, the revertants per plate ([1]; TA100 +S9, 10 μg/plate) was 1 and the revertants per plate ([1]; TA100 +S9, 50 μg/plate) was 115. For the same molecule, the revertants per plate ([1]; TA100 +S9, 100 μg/plate) was 96, the revertants per plate ([1]; TA100 −S9, 5 μg/plate) was 103 and the revertants per plate ([1]; TA100 −S9, 10 μg/plate) was 46. For the same molecule, the revertants per plate ([1]; TA100 −S9, 50 μg/plate) was 182, the revertants per plate ([1]; TA100 −S9, 100 μg/plate) was 121 and the revertants per plate ([2]; TA98 +S9, 10 μg/plate) was 24. For the same molecule, the revertants per plate ([2]; TA98 +S9, 50 μg/plate) was 35, the revertants per plate ([2]; TA98 +S9, 100 μg/plate) was 53 and the revertants per plate ([2]; TA98 +S9, 250 μg/plate) was 69. For the same molecule, the revertants per plate ([2]; TA98 +S9, 500 μg/plate) was 63, the revertants per plate ([2]; TA98 −S9, 10 μg/plate) was 28 and the revertants per plate ([2]; TA98 −S9, 50 μg/plate) was 52. For the same molecule, the revertants per plate ([2]; TA98 −S9, 100 μg/plate) was 39, the revertants per plate ([2]; TA98 −S9, 250 μg/plate) was 29 and the revertants per plate ([2]; TA98 −S9, 500 μg/plate) was 6. The revertants per plate ([3]; TA1538 −S9, 5 μg/plate) was −8, the revertants per plate ([3]; TA1538 −S9, 10 μg/plate) was −13 and the “HIV inactivation activity compared with AMT” value [4] was “significantly more active than AMT”. For the same molecule, the “genotoxic (toxic) concentration” value [5] was 100 µg/mL.

`Cc1oc2c(C)c3oc(=O)cc(C)c3cc2c1CNCCCCN` [Compound 6, 4′-(6-amino-2-aza)hexyl-4,5′,8-trimethylpsoralen] gave a revertants per plate ([1]; TA100 +S9, 5 μg/plate) of 12, a revertants per plate ([1]; TA100 +S9, 10 μg/plate) of −5 and a revertants per plate ([1]; TA100 +S9, 50 μg/plate) of 24. The revertants per plate ([1]; TA100 +S9, 100 μg/plate) was −2, the revertants per plate ([1]; TA100 +S9, 250 μg/plate) was −38 and the revertants per plate ([2]; TA98 −S9, 10 μg/plate) was 12. It also gave a revertants per plate ([2]; TA98 −S9, 50 μg/plate) of 12, a revertants per plate ([2]; TA98 −S9, 100 μg/plate) of 22 and a revertants per plate ([2]; TA98 −S9, 250 μg/plate) of 12. For the same molecule, the revertants per plate ([2]; TA98 −S9, 500 μg/plate) was 9, the revertants per plate ([3]; TA1538 −S9, 5 μg/plate) was −5 and the revertants per plate ([3]; TA1538 −S9, 10 μg/plate) was −2. For the same molecule, the “concentration showing a response” value [6] was 50 μg/plate, the “platelet count, Day 5 treated sample versus Day 5 control” value ([7]; 5 Joules/cm^2) was “counts equivalent to the 5 day control” and the “platelet count compared with samples treated with light alone” value ([7]; 5 Joules/cm^2, 5 days storage) was “higher platelet count than samples treated with light alone”. The “genotoxic (toxic) concentration” value [5] was 100 µg/mL.
